In patent publication US20240059703A1 (AMGEN INC., priority 2021, published 2024):

Assays:
KRAS G12C = KRAS G12C (Homo sapiens (Human), UniProt P01116, C118A/G12C); experiment: 2 h coupled exchange assay; format: biochemical; conditions: Avg 2 h Coupled exchange IC50, 2 h compound pre-incubation
Protocol: The term “2 h coupled exchange assay” or “20 h coupled exchange assay” as used herein refers to the assay described in the Section entitled “BIOLOGICAL EVALUATION.”

[1] = tested on: MIA PaCa-2 (human pancreatic carcinoma) cells; experiment: Cell Viability Assay (CellTiter-Glo), MIA PaCa-2; format: cell-based
Protocol: Serially-diluted compound or DMSO was added to the cells, and plates were incubated at 37° C., 5% CO2 for 72 h. Cell viability was measured using a CellTiter-Glo® Luminescent Cell Viability Assay kit (Promega) according to the manufacturer's protocol. The luminescence signal of treated samples was normalized to DMSO control, and data were analyzed using a 4-parameter logistic model to calculate IC50 values.

[2] = tested on: A549 (human lung carcinoma) cells; experiment: Cell Viability Assay (CellTiter-Glo), A549; format: cell-based
Summary of the method: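 Luminescent ATP read-out (CellTiter-Glo) after 72 h compound treatment of cells seeded overnight at 1.67E+04 cells/mL in RPMI 1640, 10% FBS; signal relative to DMSO, IC50 by 4-parameter logistic model.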

[3] = SOS-mediated nucleotide exchange

KRAS G12C, sequence (P01116 other isoform, or with tags, fused parts or gaps G12C/C118A): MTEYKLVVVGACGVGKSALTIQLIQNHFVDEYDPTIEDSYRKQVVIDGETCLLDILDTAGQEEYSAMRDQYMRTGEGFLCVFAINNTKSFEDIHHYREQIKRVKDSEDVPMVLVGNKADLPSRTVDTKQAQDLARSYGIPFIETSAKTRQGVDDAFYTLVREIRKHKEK

SMILES	IC50 (KRAS G12C; [3]) [nM]	IC50 ([1]; Homo sapiens, MIA PaCa-2, 72 h) [nM]	IC50 ([2]; Homo sapiens, A549, 72 h) [nM]	IC50 (KRAS G12C) [nM]	IC50 ([1]; 72 h) [nM]	IC50 ([2]; 72 h) [nM]
C=CC(=O)N1CC2(CCN(c3nc4c(c(-c5c(C)ccc6[nH]ncc56)c3C#N)[C@H](C)O[C@H](C)C4)C2)C1 (racemic) [Example 13-13, (5R,7S)-5,7-dimethyl-4-(5-methyl-1H-indazol-4-yl)-2-(2-(2-propenoyl)-2,6-diazaspiro[3.4]octan-6-yl)-7,8-dihydro-5H-pyrano[4,3-b]pyridine-3-carbonitrile|(5S,7R)-5,7-dimethyl-4-(5-methyl-1H-indazol-4-yl)-2-(2-(2-propenoyl)-2,6-diazaspiro[3.4]octan-6-yl)-7,8-dihydro-5H-pyrano[4,3-b]pyridine-3-carbonitrile]	93	462	> 5000			
C=CC(=O)N1CC2(CCN(c3nc4ccccc4c(-c4c(C)ccc5cn[nH]c45)c3C#N)C2)C1 [Example 2-2, 4-(6-methyl-1H-indazol-7-yl)-2-(2-(2-propenoyl)-2,6-diazaspiro[3.4]octan-6-yl)-3-quinolinecarbonitrile]	694	1730	6250			
C=CC(=O)N1CC2(CCN(c3nc4c(c(-c5c(O)cccc5F)c3C#N)CCC(c3scnc3C)=C4)C2)C1 (single isomer, unassigned) [Example 23-50, (P)-4-(2-fluoro-6-hydroxyphenyl)-7-(4-methyl-1,3-thiazol-5-yl)-2-(2-(2-propenoyl)-2,6-diazaspiro[3.4]octan-6-yl)-5,6-dihydro-3-quinolinecarbonitrile]			> 5000	38	1190	
C=CC(=O)N1CC2(CCN(c3nc4c(c(-c5c(C)ccc6[nH]ncc56)c3C#N)C[C@H]3C[C@@H]4C3(C)C)C2)C1 [Example 13-93, (6R,8R)-2-(2-acryloyl-2,6-diazaspiro[3.4]octan-6-yl)-7,7-dimethyl-4-(5-methyl-1H-indazol-4-yl)-5,6,7,8-tetrahydro-6,8-methanoquinoline-3-carbonitrile]	53	13	> 5000			
C=CC(=O)N1CC2(CCN(c3nc4c(c(-c5c(C)c(Cl)cc6cnn(C)c56)c3F)CCN(C3COC3)C4)C2)C1 (atropisomer, axis not shown; (M)) [Example 14-107, (M)-1-(6-(4-(5-chloro-1,6-dimethyl-1H-indazol-7-yl)-3-fluoro-7-(3-oxetanyl)-5,6,7,8-tetrahydro-1,7-naphthyridin-2-yl)-2,6-diazaspiro[3.4]octan-2-yl)-2-propen-1-one]		30	15300	13		
C=CC(=O)N1CC2(CCN(c3nc4c(c(-c5c(C)c(Cl)cc6cnn(C)c56)c3C)CCN(C(C)C)C4)C2)C1 [Example 12-22, 1-(6-(4-(5-chloro-1,6-dimethyl-1H-indazol-7-yl)-3-methyl-7-(2-propanyl)-5,6,7,8-tetrahydro-1,7-naphthyridin-2-yl)-2,6-diazaspiro[3.4]octan-2-yl)-2-propen-1-one]	37	44	> 5000			
C=CC(=O)N1CC2(CCN(c3nc4c(c(-c5c(N)c(Cl)cc(Cl)c5F)c3C#N)COC(C)(C)C4)C2)C1 (single isomer, unassigned) [Example 13-156, 4-(2-amino-3,5-dichloro-6-fluorophenyl)-7,7-dimethyl-2-(2-(2-propenoyl)-2,6-diazaspiro[3.4]octan-6-yl)-7,8-dihydro-5H-pyrano[4,3-b]pyridine-3-carbonitrile]	140000				5920	8160
C=CC(=O)N1CC2(CCN(c3nc4cc(-c5scnc5C)cnc4c(-c4cccc(C)c4C)c3C#N)C2)C1 [Example 19-1, 4-(2,3-Dimethylphenyl)-7-(4-methyl-1,3-thiazol-5-yl)-2-(2-(2-propenoyl)-2,6-diazaspiro[3.4]octan-6-yl)-1,5-naphthyridine-3-carbonitrile]		374	> 5000	74		
C=CC(=O)N1CC2(CCN(c3nc4c(c(-c5c(C)ccc6cnn(C)c56)c3C#N)C[C@H]3C[C@@H]4C3(C)C)C2)C1 (single isomer, unassigned) [Example 13-106]	78	831	> 5000			
